Earlier results in patent US20160279255A1, “THERAPEUTIC COMPOSITIONS INCLUDING MODULATORS OF deltaPKC AND/OR epsilonPKC, AND USES THEREOF” (priority 2014, published 2016).

System: several mammalian cell types
Settings: energy-independent manner; cited from earlier work

## 2′,6′-Dmt-D-Arg-Phe-Lys-NH2
  penetration of the plasma membrane: readily penetrates the plasma membrane
